Data from EP0032432A1, “Prostanoid compounds and their preparation and pharmaceutical formulations” (GLAXO GROUP LIMITED, priority 1980, dated 1981).

How the values were obtained:
guinea-pig lung = experiment: Potential bronchodilatation (method of Lulich et al., guinea-pig lung instead of cat lung; pA2 by Arunlakshana and Schild); format: cell-based; conditions: tested at concentrations between 2 x 10^-7 to 2x10^-5 mole/litre; for Kb: Cavia porcellus
human whole blood = experiment: Inhibition of platelet aggregation (method of Born, collagen instead of ADP as pro-aggregatory agent; pA2 by Arunlakshana and Schild); format: cell-based; conditions: tested at a concentration of 2 pg/ml
Text: As indicated above, our tests have shown that compounds of formula (1) inhibit blood platelet aggregation and/or have bronchodilatatory activity. The test we have used for bronchodilatation is as described by K.M. Lulich, et al in British Journal of Pharmacology 58, 71-79, (1976) except guinea-pig lung is used instead of cat lung. The test for inhibition of platelet aggregation is as described by G.V. Born in Nature 194, 927-929 (1962) except collagen is used instead of ADP as the pro-aggregatory agent.
The following compounds were tested at a concentration of 2 pg/ml for their ability to inhibit the aggregation of human whole blood according to the method of G V Born in Nature 194, 927-929 (1962) except collagen was used instead of ADP as the pro-aggregatory agent. pA2 values were determined using the standard procedures of Arunlakshana and Schild in Br J Pharmac Chemother, 14, 48-58 (1959): […]

dogs = experiment: Toxicity, oral administration to dogs; format: in vivo; conditions: given orally to dogs at a dose of 1 mg/kg
Text: The compounds are in general non-toxic at therapeutically useful doses.

| SMILES | Kb (human whole blood) | Kb (guinea-pig lung) | other results |
| --- | --- | --- | --- |
| COc1ccc(-c2ccc(COC3CC(=O)C(N4CCOCC4)C3CCCCCCC(=O)O)cc2)cc1 (racemic) [18d), (1α,2β,5α)-(±)-5-[[-4'-Methoxy(1,1'-biphenyl)-4-yl]-2-(4-morpholinyl)-3-oxocyclopentaneheptanoic acid] |  |  | pA2 (guinea-pig lung): 8.9 |
| COc1ccc(-c2ccc(COC3CC(=O)C(N4CCOCC4)C3CC=CCCCC(=O)O)cc2)cc1 (racemic) [11a), [1α(Z),2β,5α]-(±)-7-[5-[[4'-Methoxy(1,1'-biphenyl)-4-yl]methoxy]-2-(4-morpholinyl)-3-oxocyclopentyl]-5-heptenoic acid] | 15.8 nM |  | adverse effects (dogs): no adverse effects |
| Cc1ccc(-c2ccc(COC3CC(=O)C(N4CCOCC4)C3CC=CCCCC(=O)O)cc2)cc1 (racemic) [Example 5a), [1α(Z),2β,5α-(±)-7-[5-[[4'-Methyl(1,1'-biphenyl)-4-yl]methoxy]-2-(4-morpholinyl)-3-oxocyclopentyl]-5-heptenoic acid] | 15.8 nM |  |  |
| O=C(O)CCCC=CCC1C(OCc2ccc(Cc3ccccc3)cc2)CC(=O)C1N1CCS(=O)(=O)CC1 (racemic) [11i), [1α(Z),2β,5α]-(±)-7-[3-Oxo-5-[4-(phenylmethyl)-phenylmethoxy]-2-(4-thiomorpholinyl)cyclopentyl]-5-heptenoic acid, S-dioxide] |  | 3.16 nM |  |
| O=C(O)CCCC=CCC1C(OCc2ccc(-c3cccs3)cc2)CC(=O)C1N1CCOCC1 (racemic) [5f), [1α(Z),2β,5α]-(±)-7-[2-(4-Morpholinyl)-3-oxo-5-[4-(thien-2-yl)phenylmethoxy]cyclopentyl]-5-heptenoic acid] | 44.7 nM |  |  |
| COc1ccc(-c2csc(COC3CC(O)C(N4CCOCC4)C3CC=CCCCC(=O)O)c2)cc1 (racemic) [Example 10b), [1α(Z),2β,3α,5α]-(±)-7-[3-Hydroxy-5-[[4-(4-methoxyphenyl)thien-2-yl]methoxy]-2-(4-morpholinyl)cyclopentyl]-5-heptenoic acid] |  | 1 nM |  |
| O=C(O)CCCC=CCC1C(OCc2ccc(-c3ccc(-c4ccccc4)cc3)cc2)CC(=O)C1N1CCOCC1 (racemic) [Example 11c), [1α(Z),2β,5α]-(±)-7-[2-(4-Morpholinyl)-3-oxo-5-[[(1,1';4.1"-terphenyl)-4-yl]methoxy]cyclopentyl]-5-heptenoic acid] |  |  | adverse effects (dogs): no adverse effects |
| O=C(O)CCCC=CCC1C(OCc2ccc(Cc3ccccc3)cc2)CC(=O)C1N1CCOCC1 (racemic) [11b), 1α(Z),2β,5α]-(±)-7-[2-(4-Morpholinyl)-3-oxo-5-[[4-(phenylmethyl)phenyl]methoxy]cyclopentyl]-5-heptenoic acid] | 39.8 nM |  |  |
| COc1ccc(-c2ccc(COC3CC(=O)C(N4CCCCC4)C3CC=CCCCC(=O)O)cc2)cc1 (racemic) [11e), [1α(Z),2β,5α]-(±)-7-[5-[[4'-Methoxy(1,1'biphenyl)-4-yl]methoxy]-3-oxo-2-(1-piperidinyl)cyclopentyl]-5-heptenoic acid] |  | 1.58 nM |  |
| Cc1ccc(-c2ccc(COC3CC(=O)C(N4CCCCC4)C3CC=CCCCC(=O)O)cc2)cc1 (racemic) [11g), [1α(Z),2β,5α]-(±)-7-[5-[[4'-Methyl(1,1'-biphenyl)-4-yl]ntethoxy]-3-oxo-2-(1-piperidinyl)cyclopentyl]-5-heptenoic acid] |  | 3.16 nM |  |
| O=C(O)CCCC=CCC1C(OCc2ccc(Cc3ccccc3)cc2)CC(=O)C1N1CCCCC1 (racemic) [Example 11f), [1α(Z),2β,5α]-(±)-7-[3-Oxo-5-[4-(phenylmethyl)phenylmethoxy]-2-(1-piperidinyl)cyclopentyl]-5-heptenoic acid] |  |  | adverse effects (dogs): no adverse effects |
| Cc1ccc(-c2ccc(COC3CC(=O)C(N4CCOCC4)C3CCCCCCC(=O)O)cc2)cc1 (racemic) [18a), (1α,2β,5α)-(±)-5-[[4'-Methyl(1,1'-biphenyl)-4-yl]methoxy]-2-(4-morpholinyl)-3-oxocyclopentaneheptanoic acid] |  |  | pA2 (guinea-pig lung): 8.6 |
